Experimental data: patent publication US12521356B2, “Compositions and methods for treating pain, inflammation, infection, malaria, and sepsis” (Duke University, priority 2018, dated 2026)

Assays:
pMΦ = assay: ELISA of cytokines in zymosan-stimulated pMΦ cultures; type: cell-based, mouse
Experimental: FIG. 14A-FIG. 14C. NPD1 regulates cytokine expression in cultured macrophages via GPR37. ELISA showing the expression of pro-inflammatory cytokine IL-1β (FIG. 14A) and anti-inflammatory cytokines IL-10 (FIG. 14B) and TGF-β (FIG. 14C) in pMΦ from WT and Gpr37^−/− mice. pMΦ were stimulated with 100 μg/mL zymosan for 24 h. Note that NPD1 differentially regulates the expression of pro- and anti-inflammatory cytokines. *P<0.05; n=3 cultures/group. All the data are mean±SEM.
ELISA. Mouse ELISA kits for IL-1β, TGF-β and IL10 were purchased from R&D system (Minneapolis, MN, Catalog: MLB00C for IL-1β, Catalog: MB100B for TGF-β, and Catalog: M1000B for IL-10). ELISA was performed using culture medium and hindpaw skin tissues. Cultured cells and tissues were homogenized in a lysis buffer containing protease and phosphatase inhibitors. For each Elisa assay, 50 μg proteins or 50 μL of culture medium were used. ELISA was conducted according to manufacturer's instructions. The standard curve was included in each experiment.
Peritoneal macrophage culture. Peritoneal macrophages were collected by peritoneal lavage with 10 ml warm PBS containing of 1 mM EDTA. Cells were incubated in DMEM supplemented with 10% FBS at 37° C. for 2 h in petri dish and washed with PBS to eliminate non-adherent cells. The adherent cells were used as peritoneal macrophages. Peritoneal macrophages were used after 3 days of culture.

ALX = target: T1, ALX (Homo sapiens, UniProt P25090); assay: Ca2+ imaging (Fura-2AM) in HEK293 cells transfected with ALX cDNA; type: cell-based; conditions: HEK293 cells expressing ALX
T1 construct: host or cells: HEK293 flip-in cells
T1 sequence (P25090 1-351): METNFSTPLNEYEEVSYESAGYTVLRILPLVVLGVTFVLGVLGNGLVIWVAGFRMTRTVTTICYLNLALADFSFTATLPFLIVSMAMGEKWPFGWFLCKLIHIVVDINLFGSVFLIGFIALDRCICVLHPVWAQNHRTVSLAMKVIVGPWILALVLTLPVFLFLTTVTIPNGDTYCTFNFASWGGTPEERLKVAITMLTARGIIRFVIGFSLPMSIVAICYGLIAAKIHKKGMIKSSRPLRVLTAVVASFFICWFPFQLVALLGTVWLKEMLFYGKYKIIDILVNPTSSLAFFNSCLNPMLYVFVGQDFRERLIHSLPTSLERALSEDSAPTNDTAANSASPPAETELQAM
Text: FIG. 10A-FIG. 10C. Characterization of intracellular Ca^2+ changes in HEK293 cells expressing ChemR23, GPR32, and ALX. Ca^2+ imaging with Fura-2AM indicator showing iCa^2+ levels in HEK293 cells transfected with ChemR23 (FIG. 10A), GPR32 (FIG. 10B), and ALX (FIG. 10C) cDNAs. Note that NPD1 fails to elicit iCa^2+ increase in HEK293 cells expressing ChemR23, GPR32, and ALX. […] ATP is included as a positive control. *P<0.05, compared with baseline n=44˜97 cells from 3 cultures. All the data are expressed as mean±s.e.m.
HEK cell culture and transfection. HEK293 flip-in cell line was purchased from Duke Cell Culture Facility. Cells were cultured in high glucose (4.5 g/L) Dulbecco's Modified Eagle's Medium containing 10% (v/v) fetal bovine serum (Gibco). Transfection (2 μg cDNA) was performed with Lonza electroporation (Lonza) at 70% confluency and the transfected cells were cultured in the same growth medium for 48 h before use. The hGPR37-V5 pLenti304 plasmids were obtained from DNASU (Tempe, AZ), and hGPR32, hChemR23 and hALX pcDNA3 plasmids were provided by Dr. Serhan from Harvard Medical School, Boston.
Calcium imaging. HEK 293 cells, with or without transfection of Gpr37, GPR32, ChemR23 or ALX1 cDNA, were loaded with 5 μM Fura-2AM (Invitrogen) for 1 hour and then were resuspended in normal external buffer (140 NaCl, 5 KCl, 2 CaCl2, 2 MgCl2, 10 HEPES, in mM, titrated to pH 7.4 with NaOH) or external Ca^2+-free buffer (140 NaCl, 2 MgCl2, 5 EGTA, 10 HEPES, in mM, titrated to pH 7.4 with NaOH). Peritoneal macrophages, collected from WT and Gpr37 KO mice, were loaded with 5 μM […] (Invitrogen) for 1 hour and then were resuspended in normal external buffer. Images of the HEK 293 cells and macrophages with the excitation wavelength of 340 nm and 380 nm were captured with a cooled Digital CMOS camera (ORCA-Flash 4.0, Hamamatsu Photonics K.K, Japan). The ratio of fluorescence intensity of the two wavelengths in each experiment was analyzed using MetaFluor (Molecular Devices). The Shutter speed and wavelength was controlled by Lambda DG-4 system (Sutter instrument Co., Novato, CA). Values from each of the experiments were normalized to the baseline ratio of 340/380 nm.
Several SPM receptors have been identified such as ChemR23 for RvE1, GPR32 for RvD1, and ALX for lipoxin A. We transfected human cDNAs of ChemR23, GPR32, and ALX in HEK293 cells and checked Ca^2+ responses following the treatment of each SPM.

[1] = pMΦ cultures, zymosan 100 μg/mL for 24 h

CC/C=C\C[C@H](O)\C=C/C=C/C=C/[C@H](O)C/C=C\C/C=C\CCC(=O)O [NPD1, neuroprotectin D1]
IL-1β levels (pMΦ; [1]): suppressed | IL-10 levels (pMΦ; [1]): increased | TGF-β levels (pMΦ; [1]): increased | dependence of cytokine effects on GPR37 (pMΦ; pMΦ from WT and Gpr37−/− mice): required GPR37 | iCa2+ increase / Ca2+ response (ALX): failed to elicit iCa^2+ increase
